Test results reported in patent US6132750A (Coletica, priority 1998, dated 2000).

Assay: Inhibition of the Fe2+ induced radical degradation of hyaluronic acid (viscosity drop)
Settings: for Index of protection (%): hyaluronic acid 10 g/l, Fe2+ 620 ppm; for effect on the depolymerisation (radical cleavage) of hyaluronic acid in the presence of iron: in words
Experimental: The chelating microspheres prepared according to I2 are used to evaluate their capacity, via the trapping of ferrous iron Fe2+, to inhibit the radical degradation of hyaluronic acid, glycosarinoglycan implied in the moisturisation of the human dermis, which is therefore a particularly important target to protect in cosmetic and dermo-pharmaceutical applications.
A 10 g/l solution of hyaluronic acid of high molecular weight (>1,000,000g/mol or Daltons) is prepared in demineralised water. To this solution is added an amount of Fe2+ of 620 ppm.
Other chelating agents which are conventionally used in cosmetics were used and compared to the chelating microspheres, for their capacity to reduce the radical degradation of hyaluronic acid. Indices of protection, expressed in % of protection, are calculated by carrying out a ratio of the drop in viscosity observed by the presence of iron Fe2+ (620 ppm) in the presence of the chelating agent studied, and the drop in viscosity observed with and without iron Fe2+.

O/N=C(/C(=N/O)c1ccco1)c1ccco1 [2-furyldioxime]
Index of protection (%) (concentration used 1.56 g/l): 23.5%
Index of protection (%) (concentration used 9.37 g/l): 50%

O=C(O)CN(CCN(CC(=O)O)CC(=O)O)CC(=O)O [EDTA]
effect on the depolymerisation (radical cleavage) of hyaluronic acid in the presence of iron: accelerated

NO [Hydroxylamine]
Index of protection (%) (concentration used 6.25 g/l): 0%

Transferrin
Index of protection (%) (concentration used 125 mg/l): 8.7%
effect on the depolymerisation (radical cleavage) of hyaluronic acid in the presence of iron: accelerated
